From the NIST ThermoML archive (doi:10.1021/je200903m)
± gives the expanded uncertainty stated by the source.

Details: Liquid, isochoric method

CCn1cc[n+](C)c1.F[B-](F)(F)F [1-ethyl-3-methylimidazolium tetrafluoroborate]
Details | mass density [kg/m3]
284.73 K, 40082 kPa | 1309.71 ± 1.3
284.74 K, 29331 kPa | 1305.75 ± 1.3
285.12 K, 9993.5 kPa | 1296.4 ± 1.3
285.2 K, 19389 kPa | 1300.88 ± 1.3
285.8 K, 1326.9 kPa | 1292.98 ± 1.3
290.95 K, 50018 kPa | 1309.1 ± 1.3
291.3 K, 39987 kPa | 1305.11 ± 1.3
291.58 K, 20094 kPa | 1295.79 ± 1.3
291.59 K, 10267 kPa | 1292.43 ± 1.3
292 K, 30197 kPa | 1300.22 ± 1.3
292.03 K, 1055.4 kPa | 1288.31 ± 1.3
298.14 K, 10219 kPa | 1287.74 ± 1.3
298.14 K, 19834 kPa | 1291.82 ± 1.3
298.15 K, 20203 kPa | 1291.81 ± 1.3
298.15 K, 29284 kPa | 1295.18 ± 1.3
298.15 K, 39774 kPa | 1299.63 ± 1.3
298.15 K, 39935 kPa | 1299.63 ± 1.3
298.15 K, 50710 kPa | 1304.44 ± 1.3
298.15 K, 61191 kPa | 1308.4 ± 1.3
298.16 K, 30299 kPa | 1295.16 ± 1.3
298.63 K, 1139.7 kPa | 1283.3 ± 1.3
304.09 K, 59595 kPa | 1303.87 ± 1.3
304.39 K, 39527 kPa | 1294.57 ± 1.3
304.61 K, 49734 kPa | 1299.01 ± 1.3
304.62 K, 29983 kPa | 1291.2 ± 1.3
304.69 K, 10037 kPa | 1282.74 ± 1.3
304.69 K, 19721 kPa | 1287.13 ± 1.3
305.23 K, 1194.1 kPa | 1278.54 ± 1.3
311.4 K, 39938 kPa | 1290.56 ± 1.3
311.49 K, 30054 kPa | 1286.49 ± 1.3
311.51 K, 60021 kPa | 1298.35 ± 1.3
311.55 K, 19542 kPa | 1282.12 ± 1.3
311.56 K, 10293 kPa | 1277.95 ± 1.3
311.72 K, 50382 kPa | 1293.87 ± 1.3
312.05 K, 1111.5 kPa | 1273.28 ± 1.3
318.36 K, 19918 kPa | 1277.33 ± 1.3
318.37 K, 9976 kPa | 1272.71 ± 1.3
318.37 K, 50094 kPa | 1289.9 ± 1.3
318.4 K, 39958 kPa | 1285.84 ± 1.3
318.49 K, 30004 kPa | 1281.46 ± 1.3
318.57 K, 60242 kPa | 1293.23 ± 1.3
319.24 K, 1155.6 kPa | 1268 ± 1.3
325.39 K, 60094 kPa | 1289.24 ± 1.3
325.5 K, 50050 kPa | 1285.18 ± 1.3
325.59 K, 30106 kPa | 1276.66 ± 1.3
325.59 K, 39966 kPa | 1280.8 ± 1.3
325.65 K, 9902.1 kPa | 1267.42 ± 1.3
325.66 K, 18720 kPa | 1272.06 ± 1.3
326.26 K, 1166.5 kPa | 1262.28 ± 1.3
332.57 K, 59788 kPa | 1284.52 ± 1.3
332.79 K, 39915 kPa | 1275.99 ± 1.3
332.85 K, 50074 kPa | 1280.13 ± 1.3
332.87 K, 29859 kPa | 1271.38 ± 1.3
332.99 K, 10159 kPa | 1261.67 ± 1.3
333.07 K, 19960 kPa | 1266.75 ± 1.3
333.62 K, 1252.9 kPa | 1257.28 ± 1.3
340.28 K, 59745 kPa | 1279.45 ± 1.3
340.35 K, 9969.2 kPa | 1256.69 ± 1.3
340.37 K, 19698 kPa | 1261.02 ± 1.3
340.39 K, 50227 kPa | 1275.3 ± 1.3
340.42 K, 39835 kPa | 1270.69 ± 1.3
340.55 K, 29899 kPa | 1266.08 ± 1.3
341.04 K, 1357.1 kPa | 1251.73 ± 1.3
347.77 K, 59854 kPa | 1274.63 ± 1.3
347.97 K, 10024 kPa | 1251.12 ± 1.3
348.02 K, 29830 kPa | 1260.33 ± 1.3
348.04 K, 19820 kPa | 1256 ± 1.3
348.15 K, 49790 kPa | 1269.99 ± 1.3
348.24 K, 39938 kPa | 1265.38 ± 1.3
355.85 K, 20035 kPa | 1250.42 ± 1.3
355.86 K, 29675 kPa | 1255.31 ± 1.3
356.01 K, 40147 kPa | 1259.61 ± 1.3
356.02 K, 49918 kPa | 1264.68 ± 1.3
356.4 K, 59860 kPa | 1269.25 ± 1.3

CCCCCCn1cc[n+](C)c1.O=S(=O)([O-])C(F)(F)F [1-hexyl-3-methylimidazolium trifluoromethanesulfonate]
Details | mass density [kg/m3]
303.14 K, 103.8 kPa | 1234.94 ± 1.4
303.15 K, 8671.3 kPa | 1241.37 ± 1.4
303.15 K, 9948.5 kPa | 1242.12 ± 1.4
303.15 K, 10145 kPa | 1241.33 ± 1.4
303.15 K, 18778 kPa | 1246.84 ± 1.4
303.15 K, 29540 kPa | 1252.92 ± 1.4
303.15 K, 50077 kPa | 1263.74 ± 1.4
303.15 K, 50213 kPa | 1263.74 ± 1.4
303.16 K, 19876 kPa | 1246.81 ± 1.4
303.16 K, 30131 kPa | 1252.9 ± 1.4
303.16 K, 40525 kPa | 1258.84 ± 1.4
303.16 K, 40749 kPa | 1258.84 ± 1.4
303.93 K, 1169.5 kPa | 1236.1 ± 1.4
311.1 K, 19363 kPa | 1240.66 ± 1.4
311.1 K, 50109 kPa | 1258.15 ± 1.4
311.4 K, 59971 kPa | 1263.03 ± 1.4
311.64 K, 29371 kPa | 1246.09 ± 1.4
312.12 K, 10064 kPa | 1235.43 ± 1.4
312.13 K, 19984 kPa | 1241.37 ± 1.4
312.35 K, 40711 kPa | 1252.12 ± 1.4
312.67 K, 1137.8 kPa | 1229.31 ± 1.3
320.01 K, 60231 kPa | 1257.4 ± 1.4
320.69 K, 29908 kPa | 1239.86 ± 1.4
321.26 K, 40148 kPa | 1245.28 ± 1.4
321.32 K, 10225 kPa | 1228.6 ± 1.3
321.34 K, 19896 kPa | 1234.67 ± 1.4
321.7 K, 51336 kPa | 1251.33 ± 1.4
322.86 K, 1202 kPa | 1221.53 ± 1.3
330.07 K, 40113 kPa | 1239.07 ± 1.4
330.33 K, 60665 kPa | 1250.61 ± 1.4
330.45 K, 29706 kPa | 1233.91 ± 1.4
330.66 K, 50504 kPa | 1244.49 ± 1.4
331.61 K, 20974 kPa | 1227.76 ± 1.3
331.62 K, 10028 kPa | 1220.82 ± 1.3
332.5 K, 1153.4 kPa | 1214.09 ± 1.3
339.16 K, 49816 kPa | 1238.32 ± 1.4
339.45 K, 59226 kPa | 1243.78 ± 1.4
340.07 K, 39808 kPa | 1233.11 ± 1.3
340.31 K, 30074 kPa | 1227.04 ± 1.3
341.51 K, 9933.5 kPa | 1213.37 ± 1.3
341.52 K, 20038 kPa | 1220.02 ± 1.3
342.34 K, 977.2 kPa | 1206.6 ± 1.3
348.25 K, 58008 kPa | 1237.59 ± 1.4
349.94 K, 49966 kPa | 1232.3 ± 1.3
350.06 K, 39798 kPa | 1226.25 ± 1.3
351.54 K, 29910 kPa | 1219.2 ± 1.3
351.77 K, 10055 kPa | 1205.85 ± 1.3
351.77 K, 19878 kPa | 1212.55 ± 1.3

CCCCn1cc[n+](C)c1.O=S(=O)([O-])C(F)(F)F [1-butyl-3-methylimidazolium trifluoromethanesulfonate]
Details | mass density [kg/m3]
290.5 K, 40403 kPa | 1326.13 ± 1.5
290.51 K, 20585 kPa | 1315.76 ± 1.4
290.53 K, 10565 kPa | 1310.84 ± 1.4
290.69 K, 30827 kPa | 1321.18 ± 1.4
291.26 K, 1592.1 kPa | 1304.62 ± 1.4
298.15 K, 9757.7 kPa | 1303.63 ± 1.4
298.15 K, 19969 kPa | 1309.73 ± 1.4
298.15 K, 20141 kPa | 1309.72 ± 1.4
298.15 K, 30285 kPa | 1314.63 ± 1.4
298.15 K, 50367 kPa | 1324.98 ± 1.4
298.16 K, 9701.7 kPa | 1303.63 ± 1.4
298.16 K, 19936 kPa | 1309.73 ± 1.4
298.16 K, 30053 kPa | 1314.64 ± 1.4
298.16 K, 40303 kPa | 1320.08 ± 1.4
298.16 K, 40410 kPa | 1320.08 ± 1.4
298.17 K, 10081 kPa | 1303.62 ± 1.4
298.17 K, 10432 kPa | 1304.22 ± 1.4
298.17 K, 50464 kPa | 1324.97 ± 1.4
299.03 K, 2480.8 kPa | 1298.81 ± 1.4
305.41 K, 59674 kPa | 1323.93 ± 1.4
305.45 K, 10034 kPa | 1297.93 ± 1.4
305.45 K, 19292 kPa | 1303.2 ± 1.4
305.9 K, 39945 kPa | 1313.54 ± 1.4
306 K, 29921 kPa | 1308.61 ± 1.4
306 K, 50404 kPa | 1318.95 ± 1.4
306.05 K, 19559 kPa | 1302.52 ± 1.4
307.17 K, 1752 kPa | 1291.55 ± 1.4
313.41 K, 59599 kPa | 1317.95 ± 1.4
313.93 K, 49845 kPa | 1312.46 ± 1.4
314.21 K, 9839.1 kPa | 1290.64 ± 1.4
314.21 K, 20109 kPa | 1296.78 ± 1.4
314.21 K, 39744 kPa | 1307.53 ± 1.4
314.32 K, 29477 kPa | 1301.43 ± 1.4
314.85 K, 831 kPa | 1284.6 ± 1.4
321.66 K, 59111 kPa | 1311.47 ± 1.4
321.82 K, 29288 kPa | 1295.81 ± 1.4
323.07 K, 39773 kPa | 1300.33 ± 1.4
323.16 K, 50452 kPa | 1306.39 ± 1.4
323.18 K, 10082 kPa | 1283.58 ± 1.4
323.2 K, 20072 kPa | 1289.53 ± 1.4
323.4 K, 1581.8 kPa | 1277.54 ± 1.4
330.39 K, 28233 kPa | 1288.68 ± 1.4
330.5 K, 39240 kPa | 1294.79 ± 1.4
331.3 K, 241.1 kPa | 1270.51 ± 1.4
331.38 K, 10182 kPa | 1276.63 ± 1.4
331.38 K, 19050 kPa | 1282.64 ± 1.4
331.38 K, 59986 kPa | 1305.41 ± 1.4
331.78 K, 49813 kPa | 1299.3 ± 1.4
339.84 K, 49769 kPa | 1293.74 ± 1.4
340.71 K, 39738 kPa | 1287.53 ± 1.4
340.73 K, 10118 kPa | 1269.5 ± 1.4
340.75 K, 20227 kPa | 1275.61 ± 1.4
340.93 K, 60046 kPa | 1298.28 ± 1.4
341.39 K, 30102 kPa | 1281.54 ± 1.4
341.68 K, 1330.2 kPa | 1262.9 ± 1.4
347.88 K, 58421 kPa | 1292.89 ± 1.4
350.01 K, 30185 kPa | 1274.67 ± 1.4
350.14 K, 9957.7 kPa | 1262.06 ± 1.4
350.15 K, 19909 kPa | 1268.55 ± 1.4
350.31 K, 39671 kPa | 1280.63 ± 1.4
350.38 K, 50208 kPa | 1286.54 ± 1.4
